Laboratory results reported in patent US10793566B2, “Bruton's tyrosine kinase inhibitors” (Zibo Biopolar Changsheng Pharmaceutical Co. Ltd., priority 2016, dated 2020).

What was measured:
BTK [1] = molecular target: T1, BTK (Homo sapiens (Human), UniProt Q06187); assay: Btk occupancy in cellular assays (PCI-33380 labeling); format: cell-based; conditions: Jeko-1 cells, 1.5 h pre-incubation, PCI-33380 probe
Experimental: Btk Occupancy in Cellular Assays
For PCI-33380 labeling of human B cells, 10^6 Jeko-1 cells were pre-incubated with compound for 1.5 h before labeling. Then cells were treated with PCI-33380 at 5 μM for 1 h. Washed, lysed in Ripa buffer containing sample reducing agent, and analyzed by SDS/PAGE and fluorescent gel scanning using a Typhoon scanner 9500 (GE Healthcare) (Ex, 532 nm; Em, 555 nm). The gel was then blotted and total Btk levels detected by standard Western blot with Btk antibody (CST).
Target sequence in this assay (Q06187 whole entry): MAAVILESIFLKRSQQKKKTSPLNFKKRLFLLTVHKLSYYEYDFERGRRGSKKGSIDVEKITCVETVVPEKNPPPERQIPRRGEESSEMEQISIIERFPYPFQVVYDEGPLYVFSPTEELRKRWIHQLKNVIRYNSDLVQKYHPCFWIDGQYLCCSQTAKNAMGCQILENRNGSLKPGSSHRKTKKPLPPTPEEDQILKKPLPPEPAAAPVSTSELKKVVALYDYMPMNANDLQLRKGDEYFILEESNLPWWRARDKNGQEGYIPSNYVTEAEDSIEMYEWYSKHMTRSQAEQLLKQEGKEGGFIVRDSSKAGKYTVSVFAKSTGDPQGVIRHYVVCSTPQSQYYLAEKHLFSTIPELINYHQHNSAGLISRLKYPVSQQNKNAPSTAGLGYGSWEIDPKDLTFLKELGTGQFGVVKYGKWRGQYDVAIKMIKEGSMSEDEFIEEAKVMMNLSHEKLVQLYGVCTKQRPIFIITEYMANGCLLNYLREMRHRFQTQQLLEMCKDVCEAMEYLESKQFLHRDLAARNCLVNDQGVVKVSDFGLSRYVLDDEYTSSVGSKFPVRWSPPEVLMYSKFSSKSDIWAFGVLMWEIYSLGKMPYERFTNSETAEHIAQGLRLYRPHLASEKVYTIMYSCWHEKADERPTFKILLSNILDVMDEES

Btk [2] = molecular target: Btk (Mus musculus (Mouse), UniProt P35991); assay: Btk occupancy in vivo (PBMCs/splenocytes, PCI-33380 labeling); conditions: Babc/L mice, after 4 hours
Experimental: For analysis of Btk occupancy in Babc/L mice following oral dosing of compounds after 4 hours. Isolating peripheral blood mononuclear cells (PBMCs) with mouse peripheral blood separation kit (Hao Yang Biological Manufacture CO., LTD, Tianjin) were collected from Babc/L mice (1 ml blood from two mice). Spleens were processed to splenocytes followed by 5 min incubation in red blood cell lysing buffer (from mouse peripheral blood separation kit). PBMCs or splenocytes were then PCI-33380-labeled and lysates analyzed by fluorescent gel scanning as described in cellular assays.

Ramos cells = assay: Calcium flux assay, anti-IgM stimulated Ramos cells; format: cell-based; conditions: Homo sapiens, IgM-induced calcium influx, read-out: Ramos Ca Flux
Experimental: Calcium flux fluorescence-based assays were performed in aFDSS7000EX (Hamamatsu Photonics) fluorometric imaging plate reader according to manufacturer instructions. Compounds to be assayed were dissolved in DMSO, diluted to appropriate concentrations in Ca^2+ buffer ranging from 0 to 10 μM (at a dilution factor of 0.1), added 5 μl (6 X) to each well (the final DMSO concentration was 0.1% in each well). Then 12.5 μL 2× dye loading solution (Fluo-4 NW Calcium Assay Kits, Invitrogen) was added per well of a 384-well plate. Afterwards, actively growing Ramos cells (ATCC) in RPM1640 medium supplemented with 10% FBS (Invitrogen) were washed and re-plated in assay buffer (from Fluo-4 NW Calcium Assay Kits, Invitrogen) to approximately 6.4×10^6/ml (80000 cells/12.5 μL in 384-well plates). The plates were incubated at 37° C. for 30 minutes, then at room temperature for an additional 30 minutes. The plates were now ready to be used in an experiment. Immediately after the transfer and a 10-s recording of baseline fluorescence, the compound treated cells were stimulated with a goat anti-human IgM antibody ([…]; Jackson Immuno Research) and read in a FDSS for 240 seconds. Difference between the signal and that at baseline, designated adjusted relative fluorescence unit, was calculated by using a custom Excel (Microsoft, Redmond, Wash.) template to determine IgM-induced calcium influx and its inhibition by compounds. The table below show the result.

BTK [3] = molecular target: T1, BTK; assay: Btk kinase assay (HTRF); format: biochemical; conditions: [ATP]=80 μM, BTK=3.4 nM; read-out: BTK Inhibition
Experimental: Btk Kinase Assay and Other Kinases Assay Btk kinase activity was determined using a homogenous time resolved fluorescence (HTRF) methodology. Measurements were performed in a reaction volume of 15 μL using 384-well assay plates. […] Activity was determined by the ratio of the fluorescence at 665 nm to that at 615 nm. For each compound, enzyme activity as measured at various concentrations of compound, Negative control reactions were performed in the absence of inhibitor in two replicates and eight no enzyme controls were used to determine baseline fluorescence levels.
Target sequence in this assay (Q06187 whole entry, species assumed): as the sequence (Q06187 whole entry) above

Btk, sequence (P35991 whole entry): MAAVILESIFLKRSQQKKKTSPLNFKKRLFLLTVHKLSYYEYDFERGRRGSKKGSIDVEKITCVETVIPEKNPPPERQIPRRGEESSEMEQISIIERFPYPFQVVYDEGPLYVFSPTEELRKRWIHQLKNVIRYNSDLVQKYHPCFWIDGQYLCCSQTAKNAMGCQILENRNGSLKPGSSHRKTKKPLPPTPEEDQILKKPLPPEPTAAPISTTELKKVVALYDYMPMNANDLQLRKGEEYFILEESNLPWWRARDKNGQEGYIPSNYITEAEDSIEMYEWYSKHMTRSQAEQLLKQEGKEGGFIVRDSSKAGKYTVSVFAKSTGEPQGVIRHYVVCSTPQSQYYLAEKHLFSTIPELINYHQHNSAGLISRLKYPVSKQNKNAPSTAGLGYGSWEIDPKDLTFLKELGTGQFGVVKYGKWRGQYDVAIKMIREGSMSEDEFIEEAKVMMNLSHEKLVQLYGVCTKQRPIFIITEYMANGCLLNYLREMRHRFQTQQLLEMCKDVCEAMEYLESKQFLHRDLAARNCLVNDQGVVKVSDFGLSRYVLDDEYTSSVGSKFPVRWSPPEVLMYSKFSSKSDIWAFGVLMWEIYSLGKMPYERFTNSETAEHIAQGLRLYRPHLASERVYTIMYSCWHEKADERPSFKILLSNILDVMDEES

SMILES	concentration sufficient to fully occupy the active site of Btk (BTK [1]) [nM]	further results
C=CC(=O)N1CCC[C@@H](n2nc(-c3ccc(Oc4cccc(OC)c4F)cc3)c3cncc(OCC)c32)C1 [Example 73, (R)-1-(3-(7-ethoxy-3-(4-(2-fluoro-3-methoxyphenoxy)phenyl)-1H-pyrazolo[4,3-c]pyridin-1-yl)piperidin-1-yl)prop-2-en-1-one]	100	Btk occupancy in vivo (Btk [2]; 5 mg/kg single oral dose): full occupancy
C=CC(=O)N1CCC[C@@H](n2nc(-c3ccc(Oc4cccc(OC)c4F)cc3)c3cncc(OCCO)c32)C1 [Example 98, (R)-1-(3-(3-(4-(2-fluoro-3-methoxyphenoxy)phenyl)-7-(2-hydroxyethoxy)-1H-pyrazolo[4,3-c]pyridin-1-yl)piperidin-1-yl)prop-2-en-1-one]	100	
C=CC(=O)N1CCC[C@@H](n2nc(-c3ccc(Oc4cccc(OC)c4F)cc3)c3cncc(OC)c32)C1 [Example 6, (R)-1-(3-(3-(4-(2-fluoro-3-methoxyphenoxy)phenyl)-7-methoxy-1H-pyrazolo[4,3-c]pyridin-1-yl)piperidin-1-yl)prop-2-en-1-one]		IC50 (Ramos cells): 10 to 100 nM
C=CC(=O)N1CCC[C@@H](n2nc(-c3ccc(Oc4cccc(OC)c4F)cc3)c3cnccc32)C1 [Example 71, (R)-1-(3-(3-(4-(2-fluoro-3-methoxyphenoxy)phenyl)-1H-pyrazolo[4,3-c]pyridin-1-yl)piperidin-1-yl)prop-2-en-1-one]	100	Btk occupancy in vivo (Btk [2]; 10 mg/kg single oral dose): full occupancy
C=CC(=O)N1CCC[C@@H](n2nc(-c3ccc(Oc4cccc(OC)c4F)cc3)c3cncc(OCCC)c32)C1 [Example 77, (R)-1-(3-(3-(4-(2-fluoro-3-methoxyphenoxy)phenyl)-7-propoxy-1H-pyrazolo[4,3-c]pyridin-1-yl)piperidin-1-yl)prop-2-en-1-one]	25	
C=CC(=O)N1CC[C@@H](n2nc(-c3ccc(Oc4cccc(OC)c4Cl)cc3)c3cncc(OC)c32)C1 [Example 69, (R)-1-(3-(3-(4-(2-chloro-3-methoxyphenoxy)phenyl)-7-methoxy-1H-pyrazolo[4,3-c]pyridin-1-yl)pyrrolidin-1-yl)prop-2-en-1-one]	100	
C=CC(=O)N1CCC[C@@H](n2nc3ccncc3c2-c2ccc(Oc3cccc(Cl)c3Cl)cc2)C1 [Example 43, (R)-1-(3-(3-(4-(2,3-dichlorophenoxy)phenyl)-2H-pyrazolo[4,3-c]pyridin-2-yl)piperidin-1-yl)prop-2-en-1-one]	100	
C=CC(=O)N1CC[C@@H](n2nc3ccncc3c2-c2ccc(Oc3cccc(Cl)c3Cl)cc2)C1 [Example 41, (R)-1-(3-(3-(4-(2,3-dichlorophenoxy)phenyl)-2H-pyrazolo[4,3-c]pyridin-2-yl)pyrrolidin-1-yl)prop-2-en-1-one]	100	
C=CC(=O)N1CCC[C@@H](n2nc(-c3ccc(Oc4cccc(OC)c4F)cc3)c3cncc(OC4CCOC4)c32)C1 (stereo partly drawn) [Example 99, 1-((3R)-3-(3-(4-(2-fluoro-3-methoxyphenoxy)phenyl)-7-((tetrahydrofuran-3-yl)oxy)-1H-pyrazolo[4,3-c]pyridin-1-yl)piperidin-1-yl)prop-2-en-1-one]	100	
C=CC(=O)N1CCC[C@@H](n2nc(-c3ccc(Oc4cccc(OC)c4Cl)cc3)c3cnccc32)C1 [Example 2, (R)-1-(3-(3-(4-(2-chloro-3-methoxyphenoxy)phenyl)-1H-pyrazolo[4,3-c]pyridin-1-yl)piperidin-1-yl)prop-2-en-1-one]	100	IC50 (Ramos cells): 10 to 100 nM; Btk occupancy in vivo (Btk [2]; 10 mg/kg single oral dose): full occupancy
C=CC(=O)N1CCCC1Cn1nc(-c2ccc(Oc3cccc(OC)c3F)cc2)c2cncc(OC)c21 (centres unmarked) [Example 91, 1-(2-((3-(4-(2-fluoro-3-methoxyphenoxy)phenyl)-7-methoxy-1H-pyrazolo[4,3-c]pyridin-1-yl)methyl)pyrrolidin-1-yl)prop-2-en-1-one]		Btk occupancy in vivo (Btk [2]; 5 mg/kg single oral dose): full occupancy
C=CC(=O)N1CCC[C@@H](n2nc(-c3ccc(Oc4cccc(F)c4F)cc3)c3cnccc32)C1 [Example 17, (R)-1-(3-(3-(4-(2,3-difluorophenoxy)phenyl)-1H-pyrazolo[4,3-c]pyridin-1-yl)piperidin-1-yl)prop-2-en-1-one]	100	
C=CC(=O)N1CC[C@@H](n2nc(-c3ccc(Oc4cccc(OC)c4F)cc3)c3cncc(OC)c32)C1 [Example 79, (R)-1-(3-(3-(4-(2-fluoro-3-methoxyphenoxy)phenyl)-7-methoxy-1H-pyrazolo[4,3-c]pyridin-1-yl)pyrrolidin-1-yl)prop-2-en-1-one]	50	
C=CC(=O)N1CCC[C@@H](n2nc(-c3ccc(Oc4cccc(OC)c4F)cc3)c3c(C)nccc32)C1 [Example 78, (R)-1-(3-(3-(4-(2-fluoro-3-methoxyphenoxy)phenyl)-4-methyl-1H-pyrazolo[4,3-c]pyridin-1-yl)piperidin-1-yl)prop-2-en-1-one]	50	
C=CC(=O)N1CC[C@@H](n2nc(-c3ccc(Oc4cccc(OC)c4F)cc3)c3cncc(OCC)c32)C1 [Example 80, (R)-1-(3-(7-ethoxy-3-(4-(2-fluoro-3-methoxyphenoxy)phenyl)-1H-pyrazolo[4,3-c]pyridin-1-yl)pyrrolidin-1-yl)prop-2-en-1-one]	50	
C=CC(=O)N1CC[C@@H](n2nc(-c3ccc(Oc4cccc(F)c4Cl)cc3)c3cnccc32)C1 [Example 4, (R)-1-(3-(3-(4-(2-chloro-3-fluorophenoxy)phenyl)-1H-pyrazolo[4,3-c]pyridin-1-yl)pyrrolidin-1-yl)prop-2-en-1-one]	100	IC50 (Ramos cells): 10 to 100 nM; Btk occupancy in vivo (Btk [2]; 10 mg/kg single oral dose): full occupancy
COc1cccc(Oc2ccc(-c3nn([C@@H]4CCCN(C(=O)/C(C#N)=C/C(C)(C)C)C4)c4c(OC)cncc34)cc2)c1F [Example 90, (R,E)-2-(3-(3-(4-(2-fluoro-3-methoxyphenoxy)phenyl)-7-methoxy-1H-pyrazolo[4,3-c]pyridin-1-yl)piperidine-1-carbonyl)-4,4-dimethylpent-2-enenitrile]		IC50 (BTK [3]): 10 to 100 nM
C=CC(=O)N1CC[C@@H](n2nc(-c3ccc(Oc4cccc(OC)c4F)cc3)c3cnccc32)C1 [Example 3, (R)-1-(3-(3-(4-(2-fluoro-3-methoxyphenoxy)phenyl)-1H-pyrazolo[4,3-c]pyridin-1-yl)pyrrolidin-1-yl)prop-2-en-1-one]	50	IC50 (Ramos cells): 10 to 100 nM; Btk occupancy in vivo (Btk [2]; 10 mg/kg single oral dose): full occupancy
